{"source": "ChEMBL document CHEMBL4376829", "about": "“Discovery and biological evaluation of vinylsulfonamide derivatives as highly potent, covalent TEAD autopalmitoylation inhibitors” (Eur J Med Chem, 2019)", "key": {"[1]": {"molecular_target": "Serine/threonine-protein kinase TAO1 (Homo sapiens) (UniProt Q7L7X3)", "sequence (Q7L7X3 whole entry, the tested form may be a part)": "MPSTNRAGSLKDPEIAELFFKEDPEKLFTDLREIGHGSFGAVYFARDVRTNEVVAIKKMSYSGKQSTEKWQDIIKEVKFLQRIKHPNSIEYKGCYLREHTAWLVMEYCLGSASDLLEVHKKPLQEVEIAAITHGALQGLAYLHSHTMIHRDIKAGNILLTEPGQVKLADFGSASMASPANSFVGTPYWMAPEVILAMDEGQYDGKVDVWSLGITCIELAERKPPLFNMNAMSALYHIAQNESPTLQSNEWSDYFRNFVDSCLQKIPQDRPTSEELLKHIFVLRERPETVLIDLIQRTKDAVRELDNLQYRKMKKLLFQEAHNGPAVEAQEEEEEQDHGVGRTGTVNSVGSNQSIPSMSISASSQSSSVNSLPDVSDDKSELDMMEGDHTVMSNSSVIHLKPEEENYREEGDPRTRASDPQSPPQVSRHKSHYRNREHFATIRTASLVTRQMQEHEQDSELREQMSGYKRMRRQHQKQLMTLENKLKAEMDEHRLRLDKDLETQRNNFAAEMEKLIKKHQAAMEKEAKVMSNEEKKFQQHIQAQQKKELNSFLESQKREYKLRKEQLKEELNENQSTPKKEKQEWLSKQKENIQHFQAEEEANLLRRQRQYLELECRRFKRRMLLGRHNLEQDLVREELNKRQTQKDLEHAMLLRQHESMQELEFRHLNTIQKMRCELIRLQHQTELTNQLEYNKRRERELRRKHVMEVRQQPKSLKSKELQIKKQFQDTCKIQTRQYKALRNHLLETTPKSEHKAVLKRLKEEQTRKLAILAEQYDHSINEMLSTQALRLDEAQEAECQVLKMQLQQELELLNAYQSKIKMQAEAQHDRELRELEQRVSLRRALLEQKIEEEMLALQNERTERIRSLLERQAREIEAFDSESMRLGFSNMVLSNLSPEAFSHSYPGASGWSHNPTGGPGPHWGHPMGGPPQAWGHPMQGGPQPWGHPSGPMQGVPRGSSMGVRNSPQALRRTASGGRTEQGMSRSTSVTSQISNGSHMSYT", "test": "Inhibition of recombinant human TAO1 (1 to 327 residues) at 10 uM using myelin basic protein as substrate measured after 40 mins in presence of [gamma33P]ATP by scintillation counting method relative to control"}, "[2]": {"molecular_target": "Ribosomal protein S6 kinase alpha-3 (Homo sapiens) (UniProt P51812)", "sequence (P51812 whole entry)": "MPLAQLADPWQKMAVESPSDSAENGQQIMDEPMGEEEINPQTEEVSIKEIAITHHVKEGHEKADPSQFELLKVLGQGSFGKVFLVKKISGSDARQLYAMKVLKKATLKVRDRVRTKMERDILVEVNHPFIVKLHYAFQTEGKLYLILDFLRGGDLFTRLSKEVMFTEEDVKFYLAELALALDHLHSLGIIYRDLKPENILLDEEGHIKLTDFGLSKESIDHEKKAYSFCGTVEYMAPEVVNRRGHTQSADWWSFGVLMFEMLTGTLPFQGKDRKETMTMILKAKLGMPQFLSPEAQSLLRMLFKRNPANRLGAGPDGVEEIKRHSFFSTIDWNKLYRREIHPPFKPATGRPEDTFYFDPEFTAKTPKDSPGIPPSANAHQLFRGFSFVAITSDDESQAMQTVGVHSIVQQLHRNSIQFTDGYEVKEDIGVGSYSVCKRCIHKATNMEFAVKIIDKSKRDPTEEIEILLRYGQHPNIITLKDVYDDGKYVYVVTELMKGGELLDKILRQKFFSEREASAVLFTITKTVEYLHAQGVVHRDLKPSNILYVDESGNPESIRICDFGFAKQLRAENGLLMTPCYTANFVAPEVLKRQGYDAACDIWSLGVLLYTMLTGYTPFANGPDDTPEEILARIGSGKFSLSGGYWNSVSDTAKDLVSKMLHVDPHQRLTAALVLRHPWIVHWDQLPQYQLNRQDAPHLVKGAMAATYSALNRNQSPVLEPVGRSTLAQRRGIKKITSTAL", "test": "Inhibition of full length recombinant human Rsk2 (2 to end residues) at 10 uM using KKKNRTLSVA as substrate after 40 mins in presence of [gamma33P]ATP by scintillation counting method relative to control"}, "[3]": {"molecular_target": "Tyrosine-protein kinase HCK (Homo sapiens) (UniProt P08631)", "sequence (P08631 2-526 limits assumed)": "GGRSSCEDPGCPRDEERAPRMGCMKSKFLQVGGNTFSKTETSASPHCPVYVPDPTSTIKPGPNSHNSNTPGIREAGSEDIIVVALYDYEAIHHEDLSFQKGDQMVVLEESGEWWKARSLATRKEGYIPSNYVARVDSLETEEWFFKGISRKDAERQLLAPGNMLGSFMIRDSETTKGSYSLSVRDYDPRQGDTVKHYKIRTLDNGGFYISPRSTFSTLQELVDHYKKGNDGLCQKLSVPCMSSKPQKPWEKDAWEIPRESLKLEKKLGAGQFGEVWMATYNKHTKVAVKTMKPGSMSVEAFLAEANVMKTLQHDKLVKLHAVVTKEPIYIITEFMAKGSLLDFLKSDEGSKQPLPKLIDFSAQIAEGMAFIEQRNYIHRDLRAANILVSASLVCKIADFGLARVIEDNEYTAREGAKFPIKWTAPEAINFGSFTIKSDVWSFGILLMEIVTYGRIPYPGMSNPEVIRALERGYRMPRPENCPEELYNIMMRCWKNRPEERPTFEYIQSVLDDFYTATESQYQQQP", "test": "Inhibition of recombinant human Hck activated (230 to 497 residues) at 10 uM using GGMEDIYFEFMGGKKK as substrate after 40 mins in presence of [gamma33P]ATP by scintillation counting method relative to control"}}, "data": [{"smiles": "C=CS(=O)(=O)Nc1ccc(Cc2ccc3ccccc3c2)cc1", "values": [{"measurement": "inhibition", "setting": "[1]", "value": -10, "unit": "%"}, {"measurement": "inhibition", "setting": "[2]", "value": -3, "unit": "%"}, {"measurement": "inhibition", "setting": "[3]", "value": 3, "unit": "%"}]}]}
